Test results taken from PubChem BioAssay AID328 (DTP/NCI, 2004).
Where “and” joins values, the source holds several entries; their conditions need not be identical. Identical values can stand only once. Inconclusive results and toxic doses are left out. Rule for the calls: active = survival T/C of 150% or more; inactive = T/C below 125% in these data.

Test system: BDF1 mice, P388 leukemia ip, median survival T/C
Assay: NCI In Vivo Anticancer Drug Screen. Data for tumor model P388 Leukemia (intraperitoneal) in B6D2F1 (BDF1) mice
Conditions: endpoint: median survival time, higher = longer survival
How it was run: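 Steps: implant the tumour, treat one group with compound and another with vehicle, record survival, then divide treated by control.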

[1] = dose: 50.0 mg/kg/injection, schedule: Q04DX003 (ip), vehicle: Klucel (hydroxypropylcellulose) (HPC)
[2] = dose: 100.0 mg/kg/injection, schedule: Q04DX003 (ip), vehicle: Klucel (hydroxypropylcellulose) (HPC)
[3] = dose: 200.0 mg/kg/injection, schedule: Q04DX003 (ip), vehicle: Klucel (hydroxypropylcellulose) (HPC)
[4] = dose: 100.0 mg/kg/injection, schedule: Q04DX003 (ip), vehicle: saline with Tween-80
[5] = dose: 200.0 mg/kg/injection, schedule: Q04DX003 (ip), vehicle: saline with Tween-80
[6] = dose: 400.0 mg/kg/injection, schedule: Q04DX003 (ip), vehicle: saline with Tween-80
[7] = dose: 25.0 mg/kg/injection, schedule: Q04DX003 (ip), vehicle: Klucel (hydroxypropylcellulose) (HPC)
[8] = dose: 400.0 mg/kg/injection, schedule: Q04DX003 (ip), vehicle: Klucel (hydroxypropylcellulose) (HPC)
[9] = dose: 4.0 mg/kg/injection, schedule: Q01DX009 (ip), vehicle: saline
[10] = dose: 25.0 mg/kg/injection, schedule: Q04DX003 (ip), vehicle: saline
[11] = dose: 50.0 mg/kg/injection, schedule: Q04DX003 (ip), vehicle: saline
[12] = dose: 100.0 mg/kg/injection, schedule: Q04DX003 (ip), vehicle: saline
[13] = dose: 150.0 mg/kg/injection, schedule: Q04DX003 (ip), vehicle: saline
[14] = dose: 100.0 mg/kg/injection, schedule: Q01DX009 (ip), vehicle: saline with Tween-80
[15] = dose: 200.0 mg/kg/injection, schedule: Q01DX009 (ip), vehicle: saline with Tween-80
[16] = dose: 50.0 mg/kg/injection, schedule: Q01DX009 (ip), vehicle: saline with Tween-80

Measured: T/C

CC(Sc1ncnc2nc[nH]c12)c1ccccc1 (centres undefined)
inactive: [1] 100 % of control | [2] 100 % of control | [3] 110 % of control

COc1cc(C(=O)OC2CC34CCNC35CC(OC5(OC)C2O)c2cc3c(cc24)OCO3)ccc1O (centres undefined)
inactive: dose: 0.5 mg/kg/injection, schedule: Q01DX010 (ip), vehicle: saline 100 % of control | dose: 1.0 mg/kg/injection, schedule: Q01DX010 (ip), vehicle: carboxymethylcellulose (CMC) 86 % of control | dose: 1.0 mg/kg/injection, schedule: Q01DX010 (ip), vehicle: saline 118 % of control | dose: 2.0 mg/kg/injection, schedule: Q01DX010 (ip), vehicle: saline 95 % of control

CCSC(C#N)=C(c1ccccc1)c1ccccc1
inactive: [4] 103 % of control | [5] 94 % of control | [6] 92 % of control

CCOc1nc(SCC)ncc1C
inactive: dose: 50.0 mg/kg/injection, schedule: Q01DX009 (ip), vehicle: water 109 % of control | dose: 100.0 mg/kg/injection, schedule: Q01DX009 (ip), vehicle: water 101 % of control | dose: 100.0 mg/kg/injection, schedule: Q04DX003 (ip), vehicle: water 99 % of control | dose: 200.0 mg/kg/injection, schedule: Q01DX009 (ip), vehicle: water 108 % of control | dose: 200.0 mg/kg/injection, schedule: Q04DX003 (ip), vehicle: water 103 % of control | dose: 400.0 mg/kg/injection, schedule: Q04DX003 (ip), vehicle: water 107 % of control

CC1OC(OC2CC(O)C3(CO)C4C(O)CC5(C)C(C6=CC(=O)OC6)CCC5(O)C4CCC3(O)C2)C(O)C(O)C1O (centres undefined)
inactive: dose: 1.5 mg/kg/injection, schedule: Q01DX010 (ip), vehicle: saline 90 % of control | dose: 3.0 mg/kg/injection, schedule: Q01DX010 (ip), vehicle: saline 90 % of control

CN(Nc1c([N+](=O)[O-])cc([N+](=O)[O-])cc1[N+](=O)[O-])c1cccc2ccccc12
inactive: [7] 109 % of control | [1] 100 % of control | [2] 100 % of control | [3] 86 % of control | [8] 90 % of control

N=C(N)CCNC(=O)C1CCC(N)=N1 (centres undefined)
inactive: dose: 2.0 mg/kg/injection, schedule: Q01DX009 (ip), vehicle: saline 91 % of control | [9] 100 % of control | dose: 8.0 mg/kg/injection, schedule: Q01DX009 (ip), vehicle: saline 108 % of control

Cc1c(-c2ccccc2)cc(O)cc1-c1ccccc1
inactive: dose: 12.5 mg/kg/injection, schedule: Q04DX003 (ip), vehicle: saline 101 % of control | [10] 97 % of control and 114 % of control | [11] 102 % of control (2×) and 112 % of control | [12] 88 % of control and 109 % of control | [13] 93 % of control | dose: 200.0 mg/kg/injection, schedule: Q04DX003 (ip), vehicle: saline 93 % of control and 101 % of control and 102 % of control

NCCO/C=C/C(N)C(=O)O (centres undefined)
inactive: [9] 99 % of control | dose: 6.0 mg/kg/injection, schedule: Q01DX009 (ip), vehicle: saline 100 % of control | dose: 9.0 mg/kg/injection, schedule: Q01DX009 (ip), vehicle: saline 93 % of control | dose: 12.5 mg/kg/injection, schedule: Q01DX009 (ip), vehicle: saline 104 % of control | dose: 25.0 mg/kg/injection, schedule: Q01DX009 (ip), vehicle: saline 107 % of control

ClC1C(Cl)C2CC1C1OC21 (centres undefined)
inactive: dose: 50.0 mg/kg/injection, schedule: Q01DX009 (ip), vehicle: other 101 % of control | dose: 100.0 mg/kg/injection, schedule: Q01DX009 (ip), vehicle: other 100 % of control | dose: 200.0 mg/kg/injection, schedule: Q01DX009 (ip), vehicle: other 100 % of control

NC(C(=O)O)C(O)c1ccc2c(c1)OCO2 (centres undefined)
inactive: [14] 95 % of control | [15] 105 % of control | dose: 400.0 mg/kg/injection, schedule: Q01DX009 (ip), vehicle: saline with Tween-80 95 % of control

O.[Cu].[Cu]
inactive: dose: 6.25 mg/kg/injection, schedule: Q01DX009 (ip), vehicle: Klucel (hydroxypropylcellulose) (HPC) 90 % of control | dose: 6.25 mg/kg/injection, schedule: Q04DX003 (ip), vehicle: Klucel (hydroxypropylcellulose) (HPC) 90 % of control | dose: 12.5 mg/kg/injection, schedule: Q01DX009 (ip), vehicle: Klucel (hydroxypropylcellulose) (HPC) 110 % of control | dose: 12.5 mg/kg/injection, schedule: Q04DX003 (ip), vehicle: Klucel (hydroxypropylcellulose) (HPC) 90 % of control | dose: 25.0 mg/kg/injection, schedule: Q01DX009 (ip), vehicle: Klucel (hydroxypropylcellulose) (HPC) 95 % of control | [7] 118 % of control

C[N+](C)(CC(=O)Nc1ccc(Cl)c(Cl)c1)Cc1ccc(Cl)c(Cl)c1
inactive: dose: 6.25 mg/kg/injection, schedule: Q01DX009 (ip), vehicle: saline with Tween-80 120 % of control | dose: 12.5 mg/kg/injection, schedule: Q01DX009 (ip), vehicle: saline with Tween-80 108 % of control

Cc1ccc(CSc2ssc(=S)c2-c2ccccc2)cc1
inactive: dose: 100.0 mg/kg/injection, schedule: Q01DX001 (ip), vehicle: Klucel (hydroxypropylcellulose) (HPC) 104 % of control | dose: 100.0 mg/kg/injection, schedule: Q01DX009 (ip), vehicle: Klucel (hydroxypropylcellulose) (HPC) 110 % of control | dose: 200.0 mg/kg/injection, schedule: Q01DX001 (ip), vehicle: Klucel (hydroxypropylcellulose) (HPC) 104 % of control | dose: 200.0 mg/kg/injection, schedule: Q01DX009 (ip), vehicle: Klucel (hydroxypropylcellulose) (HPC) 110 % of control | dose: 400.0 mg/kg/injection, schedule: Q01DX001 (ip), vehicle: Klucel (hydroxypropylcellulose) (HPC) 109 % of control | dose: 400.0 mg/kg/injection, schedule: Q01DX009 (ip), vehicle: Klucel (hydroxypropylcellulose) (HPC) 115 % of control

O=C1c2ccccc2C(=O)N1CCc1ccccn1
inactive: dose: 50.0 mg/kg/injection, schedule: Q04DX003 (ip), vehicle: saline with Tween-80 100 % of control | [14] 100 % of control | [4] 95 % of control and 111 % of control | [15] 95 % of control | [5] 100 % of control and 111 % of control | [6] 88 % of control

COC1CC(C)(O)C(OC2CCC(OC(=O)C(C)C(O)c3ccc4c(c3)C(=O)C=C(C)C4=O)C(C)O2)C(C)O1 (centres undefined)
inactive: dose: 1.25 mg/kg/injection, schedule: Q01DX009 (ip), vehicle: saline 100 % of control and 103 % of control | dose: 2.5 mg/kg/injection, schedule: Q01DX009 (ip), vehicle: saline 94 % of control and 100 % of control | dose: 5.0 mg/kg/injection, schedule: Q01DX009 (ip), vehicle: saline 99 % of control | dose: 10.0 mg/kg/injection, schedule: Q01DX009 (ip), vehicle: saline 99 % of control

O=C1/C(=C/c2ccco2)CC2CCCCC12 (centres undefined)
inactive: dose: 50.0 mg/kg/injection, schedule: Q01DX009 (ip), vehicle: Klucel (hydroxypropylcellulose) (HPC) 104 % of control | dose: 75.0 mg/kg/injection, schedule: Q01DX001 (ip), vehicle: other 100 % of control | dose: 75.0 mg/kg/injection, schedule: Q01DX009 (ip), vehicle: Klucel (hydroxypropylcellulose) (HPC) 113 % of control | dose: 150.0 mg/kg/injection, schedule: Q01DX001 (ip), vehicle: other 104 % of control | dose: 150.0 mg/kg/injection, schedule: Q01DX009 (ip), vehicle: Klucel (hydroxypropylcellulose) (HPC) 100 % of control

OCC1CSC(c2ccccc2)N1 (centres undefined)
inactive: [16] 86 % of control | [14] 115 % of control | [15] 103 % of control

Cc1cc(C)c(NS(=O)(=O)c2ccccc2)c(C)n1
inactive: [4] 100 % of control | [5] 91 % of control | [6] 91 % of control

CC(C)(C)C(=O)CC(O)(C(F)(F)Cl)C(F)(F)Cl
inactive: [14] 100 % of control | [15] 100 % of control

CCCCCCCCCCOP(N)(=O)OCCCCCCCCCC
inactive: [10] 115 % of control | [16] 90 % of control | [11] 110 % of control | [14] 86 % of control | [4] 95 % of control | [12] 110 % of control | [13] 110 % of control | [5] 95 % of control | dose: 225.0 mg/kg/injection, schedule: Q04DX003 (ip), vehicle: saline 105 % of control

Clc1nc2n[nH]nc2nc1Cl
inactive: dose: 3.13 mg/kg/injection, schedule: Q01DX009 (ip), vehicle: saline 100 % of control | dose: 6.25 mg/kg/injection, schedule: Q01DX009 (ip), vehicle: saline 95 % of control

Cc1[nH]c(N)nc(=S)c1CCC(=O)O
inactive: [2] 100 % of control | [3] 104 % of control | [8] 95 % of control
